From US11512097B2, “Heterocyclic compounds as Delta-5 desaturase inhibitors and methods of use” (Amgen Inc., priority 2019, dated 2022)

Tests used:
[1] = molecular target: T1, Delta-5-Desaturase (D5D), membrane preparations of D5D-overexpressing HEK293 6E cells (Homo sapiens, UniProt O60427); experiment: In vitro measurement of Delta-5-Desaturase inhibitory activity using DGLA-CoA and Arachidonyl-CoA mass spectrometric assays; assay type: biochemical; settings: D5D membrane 10 μg/mL, one-hour incubation, average of at least two independent runs
T1 construct: expressed in transfected cells; host or cells: HEK293 6E cells (membrane preparation)
T1 sequence (O60427 whole entry, species assumed): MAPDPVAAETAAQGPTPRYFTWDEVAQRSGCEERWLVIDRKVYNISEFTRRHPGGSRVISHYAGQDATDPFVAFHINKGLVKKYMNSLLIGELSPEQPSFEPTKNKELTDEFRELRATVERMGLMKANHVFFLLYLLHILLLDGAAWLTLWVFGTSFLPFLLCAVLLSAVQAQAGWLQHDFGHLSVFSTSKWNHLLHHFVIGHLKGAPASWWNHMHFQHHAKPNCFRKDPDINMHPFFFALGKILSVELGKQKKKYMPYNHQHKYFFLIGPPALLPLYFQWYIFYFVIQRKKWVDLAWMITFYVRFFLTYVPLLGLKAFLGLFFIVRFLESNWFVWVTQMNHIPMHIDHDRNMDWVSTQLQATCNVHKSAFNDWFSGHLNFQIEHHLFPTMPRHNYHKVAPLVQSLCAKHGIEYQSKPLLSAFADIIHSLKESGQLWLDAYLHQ
Method in brief: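 Membranes from D5D-overexpressing HEK293 6E cells (10 μg/mL final) in pH 7.5 Tris buffer with MgCl2, octyl glucoside and TCEP were run with substrate solution holding 0.01 mM DGLA, NADH, ATP and CoA for 1 h at ambient temperature. Acetonitrile quench; DGLA-CoA and arachidonyl-CoA measured by RapidFire MRM-MS; 4-parameter IC50, ≥2 runs averaged.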

Delta-5-Desaturase (D5D) = molecular target: T2, Delta-5-Desaturase (D5D) (Mus musculus, UniProt Q920L1); experiment: In vivo measurement of Delta-5-Desaturase inhibitory activity (plasma AA/DGLA ratio in DIO mice); settings: single oral dose 30 mg/kg, relative to vehicle group
T2 construct: tissue Jackson Laboratories strain #3800050; host or cells: whole animal (DIO mice)
T2 sequence (Q920L1 1-447): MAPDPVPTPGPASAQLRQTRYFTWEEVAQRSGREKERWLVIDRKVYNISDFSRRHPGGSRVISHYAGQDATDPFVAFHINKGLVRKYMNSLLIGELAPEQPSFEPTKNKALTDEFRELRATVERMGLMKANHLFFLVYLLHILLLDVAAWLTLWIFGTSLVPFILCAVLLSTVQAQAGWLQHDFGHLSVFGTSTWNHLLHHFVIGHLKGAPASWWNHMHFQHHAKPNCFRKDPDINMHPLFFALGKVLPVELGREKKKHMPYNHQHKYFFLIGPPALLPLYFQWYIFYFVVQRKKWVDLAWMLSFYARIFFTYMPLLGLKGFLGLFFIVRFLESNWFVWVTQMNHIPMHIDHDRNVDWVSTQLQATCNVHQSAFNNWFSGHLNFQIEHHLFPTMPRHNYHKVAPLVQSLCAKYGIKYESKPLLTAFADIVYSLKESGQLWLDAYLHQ
Description: In Vivo Measurement of Delta-5-Desaturase Inhibitory Activity
Diet-induced obese (DIO; Jackson Laboratories strain #[…]) mice were used to screen for pharmacodynamic (PD) activity of test compounds. Generally, 14 to 24 week old DIO mice, were administered test compounds formulated in the vehicle of 2% hydroxypropyl methylcellulose (HPMC) and 1% Tween80. Animals were dosed on body weight by oral gavage with a single dose (30 mg/kg) for PD studies. Necropsy included plasma collection for PUFA analysis. 10 μl of plasma or standards diluted in surrogate matrix (65 g/l bovine serum albumin in Dulbecco's phosphate-buffered saline) were mixed with 10 μl of an internal standard (100 μM alpha-linolenic acid-d14 (ALA-d14, Cayman Chemical)) in a 96 well plate. 100 μl of 2N NAOH was added to the mixture for subsequent saponification at 65° C. for 1 hour. The mixture was then acidified with 50 μl of formic acid followed by two consecutive hexane extractions. Hexane (500 μl) was added and the mixture thoroughly mixed by vortexing, followed by centrifugation at 4,000 rpm for 15 min. The hexane phase was transferred to a new 1 ml 96 well plate and the remaining aqueous layer was extracted with hexane. The organic extracts were combined and the solvent was removed by placing the plate under nitrogen gas at 55° C. 250 μl of 90% methanol was added to the plate followed by vortexing for 2 minutes. 200 μl of the samples were transferred to a new 96 well polypropylene plate. The samples were analyzed on a LC-MS/MS for the following PUFAs: arachidonic acid (AA), dihomo-gamma-linolenic acid (DGLA), with ALA-d14 as the internal standard. Description of the LC-MS/MS method: 5 μl of sample was injected onto a Poroshell 120 EC-C18 3.0×50 mm, 1.9 μm id column. […] The PUFA peak areas were quantified by using the SCIEX Analyst software. […] The relative decrease of the AA/DGLA ratio of the test compound administered group relative to the vehicle administered group was calculated and used as an index for the degree of D5D inhibition. […]

IC50 [1]: 0.0196 µM | Average % D5D Inhibition expressed as Plasma Endogenous AA/DGLA Ratio (Delta-5-Desaturase (D5D)): 66%
Compound: Cc1nn2c(=O)c(-c3cnn(CC(F)(F)C(F)(F)F)c3)c(C(F)(F)F)nc2s1 [Example 2, 2-methyl-6-[1-(2,2,3,3,3-pentafluoropropyl)-1H-pyrazol-4-yl]-7-(trifluoromethyl)-5H-[1,3,4]thiadiazolo[3,2-a]pyrimidin-5-one]
